{
  "source": "patent US4166765A",
  "about": "“Detecting Neisseria bacteria” (Corning Glass Works, priority 1977, dated 1979)",
  "data": [
    {"test_system": "1,2-propanediol dehydrogenase", "assay": "Substrate specificity of the enzyme on analogs of 1,2-propanediol using NAD", "format": "biochemical, Neisseria", "set-up": "concentration or dose not given beside the values", "settings": "substrate with NAD; relative to 1,2-propanediol = 100", "protocol": "The following reagents were added to 12×75 mm plastic tubes:\nTo each test tube was added 100 μl of a bacterial lysate. Incubations varied in time from being read immediately and continuously for 4 minutes, to allowing the assay tubes to incubate one-half hour before reading. All procedures and incubations were carried out at room temperature.\nThe samples were read at 340 nm (ultraviolet) on a Perkin-Elmer double beam spectrophotometer. A Honeywell Electronik 194 recorder was used to record absorbency. The tests that were read immediately and continuously for 4 minutes were allowed to record for the same time period. Those tests read after 30 minutes were not read continuously, but had their absorbencies recorded after the incubation period [Activity (A) was determined in the 4 minute monitored assay and in the 30 minute assay].\nIn order to examine the specificity of the substrate with respect to the enzyme, it was assayed on several analogs of 1,2-propanediol using NAD.", "units": {"% Reactivity": "%"}, "values": [
      {"compound": "CC(O)CO", "note": "(stereo not shown) [1,2-propanediol]", "% Reactivity": 100},
      {"compound": "OCC(O)CO", "note": "[Glycerol]", "% Reactivity": 1},
      {"compound": "CCO", "note": "[Ethanol]", "% Reactivity": 0},
      {"compound": "OCC(O)CCl", "note": "(stereo not shown) [1 chloro 2,3-propanediol]", "% Reactivity": 0},
      {"compound": "OCCCO", "note": "[1,3 propanediol]", "% Reactivity": 0},
      {"compound": "OCCO", "note": "[1,2 ethanediol]", "% Reactivity": 0},
      {"compound": "O=C(CO)CO", "note": "[Dihydroxyacetone]", "% Reactivity": 21},
      {"compound": "CCCO", "note": "[1-propanol]", "% Reactivity": 0},
      {"compound": "CC(C)O", "note": "[2-propanol]", "% Reactivity": 0},
      {"compound": "CCC(O)CO", "note": "(stereo not shown) [1,2 butanediol]", "% Reactivity": 10}
    ]}
  ]
}
